Assay results as given in PubChem BioAssay (NCI).
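Cultured in 96-well plates, cells were exposed to test compound for 48 hours across five concentrations. The concentration for 50% growth inhibition is given as GI50. The concentration for full growth arrest is given as TGI.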

What was measured:
Assay in all cases: NCI tumour cell line growth inhibition, 48 h
OVCAR-8 ovarian = system: OVCAR-8 ovarian
M14 melanoma = system: M14 melanoma
786-0 renal = system: 786-0 renal
SNB-19 CNS = system: SNB-19 CNS
PC-3 prostate = system: PC-3 prostate
SK-MEL-2 melanoma = system: SK-MEL-2 melanoma
HOP-62 NSCLC = system: HOP-62 NSCLC
SF-295 CNS = system: SF-295 CNS
HS 578T breast = system: HS 578T breast
SNB-75 CNS = system: SNB-75 CNS

Compound CC(=O)n1c(-c2ccc(Cl)c(Cl)c2)cn(-c2ccc(Cl)cc2)c1=O has a GI50 (OVCAR-8 ovarian) of 23.1 µM, a TGI (OVCAR-8 ovarian) of 76.5 µM and a GI50 (M14 melanoma) of 27.6 µM. For the same compound, the TGI (M14 melanoma) was > 100 µM, the GI50 (786-0 renal) was 13.4 µM and the TGI (786-0 renal) was 32.9 µM. The GI50 (SNB-19 CNS) was 13.4 µM, the TGI (SNB-19 CNS) was 40.7 µM and the GI50 (PC-3 prostate) was 26.6 µM. For the same compound, the TGI (PC-3 prostate) was > 100 µM, the GI50 (SK-MEL-2 melanoma) was 22.4 µM and the TGI (SK-MEL-2 melanoma) was 69.2 µM. The GI50 (HOP-62 NSCLC) was 20.4 µM, the TGI (HOP-62 NSCLC) was 43.8 µM and the GI50 (SF-295 CNS) was 11.9 µM. It also gave a TGI (SF-295 CNS) of 28.8 µM, a GI50 (HS 578T breast) of 15.5 µM and a TGI (HS 578T breast) of 36.5 µM. It also gave a GI50 (SNB-75 CNS) of 13.6 µM and a TGI (SNB-75 CNS) of 31.4 µM.

Work on O=[N+]([O-])c1cc2c(ccc3occc32)o1 yielded a GI50 (OVCAR-8 ovarian) of 2.45 µM, a TGI (OVCAR-8 ovarian) of 21 µM and a GI50 (M14 melanoma) of 1.41 µM. The TGI (M14 melanoma) was 3 µM, the GI50 (786-0 renal) was 2.37 µM and the TGI (786-0 renal) was 5 µM. It also gave a GI50 (SNB-19 CNS) of 3.78 µM, a TGI (SNB-19 CNS) of 45.9 µM and a GI50 (PC-3 prostate) of 10.2 µM. It also gave a TGI (PC-3 prostate) of 38.4 µM, a GI50 (SK-MEL-2 melanoma) of 2.03 µM and a TGI (SK-MEL-2 melanoma) of 4.56 µM. The GI50 (HOP-62 NSCLC) was 3.94 µM, the TGI (HOP-62 NSCLC) was 21.5 µM and the GI50 (SF-295 CNS) was 2.04 µM. The TGI (SF-295 CNS) was 5.75 µM, the GI50 (HS 578T breast) was 4.29 µM and the TGI (HS 578T breast) was 70.2 µM. It also gave a GI50 (SNB-75 CNS) of 3.08 µM and a TGI (SNB-75 CNS) of 53.9 µM.

With Cc1c(C(N)=O)sc2c1c(=O)n(Cc1ccccc1)c1nnc(S(=O)(=O)CC(=O)Nc3ccc(Cl)cc3)n21 the GI50 (OVCAR-8 ovarian) was 3.69 µM, the TGI (OVCAR-8 ovarian) was 15.6 µM and the GI50 (M14 melanoma) was 5.3 µM. It also gave a TGI (M14 melanoma) of 21.2 µM, a GI50 (786-0 renal) of 3.07 µM and a TGI (786-0 renal) of 12.2 µM. The GI50 (SNB-19 CNS) was 7.7 µM, the TGI (SNB-19 CNS) was 23.3 µM and the GI50 (PC-3 prostate) was 2.58 µM. It also gave a TGI (PC-3 prostate) of 9.3 µM, a GI50 (SK-MEL-2 melanoma) of 2.83 µM and a TGI (SK-MEL-2 melanoma) of 7.18 µM. The GI50 (HOP-62 NSCLC) was 2.51 µM, the TGI (HOP-62 NSCLC) was 5.99 µM and the GI50 (SF-295 CNS) was 3.28 µM. The TGI (SF-295 CNS) was 26.2 µM, the GI50 (HS 578T breast) was 2.67 µM and the TGI (HS 578T breast) was > 100 µM. For the same compound, the GI50 (SNB-75 CNS) was 2.15 µM and the TGI (SNB-75 CNS) was 5.48 µM.

In the case of CCCC(CCC)C(=O)OCC1(CO)C/C(=C\c2ccc(C(F)(F)F)cc2)C(=O)O1 (stereo not given), the GI50 (OVCAR-8 ovarian) is reported as 21 µM, the TGI (OVCAR-8 ovarian) is reported as 41 µM and the GI50 (M14 melanoma) is reported as 10.7 µM. For the same compound, the TGI (M14 melanoma) was 23.2 µM, the GI50 (786-0 renal) was 10.1 µM and the TGI (786-0 renal) was 22.5 µM. The GI50 (SNB-19 CNS) was 16.8 µM, the TGI (SNB-19 CNS) was 30.6 µM and the GI50 (PC-3 prostate) was 12.3 µM. It also gave a TGI (PC-3 prostate) of 25.4 µM, a GI50 (SK-MEL-2 melanoma) of 18.6 µM and a TGI (SK-MEL-2 melanoma) of 36 µM. For the same compound, the GI50 (HOP-62 NSCLC) was 2.34 µM, the TGI (HOP-62 NSCLC) was 15.1 µM and the GI50 (SF-295 CNS) was 2.44 µM. It also gave a TGI (SF-295 CNS) of 17.7 µM, a GI50 (HS 578T breast) of 12.1 µM and a TGI (HS 578T breast) of 30 µM. It also gave a GI50 (SNB-75 CNS) of 12.1 µM and a TGI (SNB-75 CNS) of 26.8 µM.

For CC1=NN(c2ccccc2)C(=O)C1N=Nc1ccc(S(N)(=O)=O)cc1 (stereo not given), the TGI (OVCAR-8 ovarian) was > 100 µM, the TGI (M14 melanoma) was > 100 µM and the TGI (786-0 renal) was > 100 µM. For the same compound, the TGI (SNB-19 CNS) was > 100 µM, the TGI (PC-3 prostate) was > 100 µM and the TGI (SK-MEL-2 melanoma) was > 100 µM. The TGI (HOP-62 NSCLC) was > 100 µM, the TGI (SF-295 CNS) was > 100 µM and the TGI (HS 578T breast) was > 100 µM. For the same compound, the TGI (SNB-75 CNS) was > 100 µM.

With COc1ccc2c(c1)C=C1CSCC3=Cc4cc(OC)ccc4OC13O2 the GI50 (OVCAR-8 ovarian) was 0.522 µM, the TGI (OVCAR-8 ovarian) was > 100 µM and the GI50 (M14 melanoma) was 0.323 µM. For the same compound, the TGI (M14 melanoma) was > 100 µM, the GI50 (786-0 renal) was 0.821 µM and the TGI (786-0 renal) was > 100 µM. The GI50 (SNB-19 CNS) was 0.552 µM, the TGI (SNB-19 CNS) was > 100 µM and the GI50 (PC-3 prostate) was 0.36 µM. For the same compound, the TGI (PC-3 prostate) was > 100 µM, the GI50 (SK-MEL-2 melanoma) was 0.625 µM and the TGI (SK-MEL-2 melanoma) was > 100 µM. The GI50 (HOP-62 NSCLC) was 0.407 µM, the TGI (HOP-62 NSCLC) was > 100 µM and the GI50 (SF-295 CNS) was 0.316 µM. The TGI (SF-295 CNS) was > 100 µM, the GI50 (HS 578T breast) was 0.313 µM and the TGI (HS 578T breast) was > 100 µM. It also gave a GI50 (SNB-75 CNS) of 0.183 µM and a TGI (SNB-75 CNS) of 0.598 µM.

CC(C)=CCc1cc(C2COc3cc4c(c(O)c3C2=O)C=CC(C)(C)O4)c(O)cc1O (stereo not given) showed a TGI (OVCAR-8 ovarian) of 51.2 µM, a TGI (M14 melanoma) of 26.2 µM and a TGI (786-0 renal) of 36.7 µM. The TGI (SNB-19 CNS) was 40.7 µM, the TGI (PC-3 prostate) was 24.9 µM and the TGI (SK-MEL-2 melanoma) was 31.7 µM. The TGI (HOP-62 NSCLC) was 32.3 µM, the TGI (SF-295 CNS) was 43.5 µM and the TGI (HS 578T breast) was 39.9 µM. It also gave a TGI (SNB-75 CNS) of 36 µM.

CN(C)C(=S)SCC(N)=O was tested, and the TGI (OVCAR-8 ovarian) was > 100 µM, the TGI (M14 melanoma) was > 100 µM and the TGI (786-0 renal) was > 100 µM. The TGI (SNB-19 CNS) was > 100 µM, the TGI (PC-3 prostate) was > 100 µM and the TGI (SK-MEL-2 melanoma) was > 100 µM. For the same compound, the TGI (HOP-62 NSCLC) was > 100 µM, the TGI (SF-295 CNS) was > 100 µM and the TGI (HS 578T breast) was > 100 µM. For the same compound, the TGI (SNB-75 CNS) was > 100 µM.
